Assay type in all cases: biochemical
For assay [1], the system named is human and animal plasma. As to the kind of experiment: Determination of the anticoagulatory activity: activated partial thromboplastin time (aPTT) in plasma. The note with it: in vitro in plasma, C.K. Prest kit, 3 min at 37° C. The protocol:
The anticoagulatory activity of the test substances is determined in vitro in human and animal plasma (for example mouse, rat, rabbit, pig and dog plasma). To this end, blood is drawn off in a mixing ratio of sodium citrate/blood of 1:9 using a 0.11 molar sodium citrate solution as receiver. Immediately after the blood has been drawn off, it is mixed thoroughly and centrifuged at about 4000 g for 15 minutes. The supernatant is pipetted off.
The activated partial thromboplastin time (aPTT) is determined in the presence of varying concentrations of test substance or the corresponding solvent using a commercial test kit (C.K. Prest from Diagnostica Stago). The test compounds are incubated with the plasma and the PTT reagent (cephalin, kaolin) at 37° C. for 3 minutes. Coagulation is then started by addition of a 25 mM aqueous calcium chloride solution, and the time when coagulation occurs is determined. The concentration of test substance which brings about a 1.5-fold extension of the aPTT is determined Activity data from this test are listed in Table B below: […]

Assay [2] concerns the target T1, human plasmin (Homo sapiens, UniProt P00747).
T1 construct: purchased Kordia
The experiment in a line: Measurement of plasmin inhibition (fluorogenic peptide substrate MeOSuc-Ala-Phe-Lys-AMC). The note with it: plasmin from Kordia, 15 min preincubation, 30 min at 22° C., fluorescence. Here is the method:
The plasmin inhibition of the inventive substances is determined using a biochemical test system which utilizes the reaction of a peptidic plasmin substrate to determine the enzymatic activity of human plasmin. Here, plasmin cleaves from the peptic plasmin substrate the C-terminal aminomethylcoumarin (AMC), the fluorescence of which is measured. The determinations are carried out in microtitre plates.
(§1) Test substances are dissolved in dimethyl sulphoxide and serially diluted in dimethyl sulphoxide (3000 μM to 0.0078 μM; resulting final concentrations in the test: 50 μM to 0.00013 μM). In each case 1 μl of the diluted substance solutions are placed into the wells of white microtitre plates from Greiner (384 wells). Subsequently, the following are added successively: 20 μl of assay buffer (50 mmol/l Tris buffer pH 7.4; 100 mmol/l sodium chloride; 5 mmol/l calcium chloride; 0.1% bovine serum albumin) and 20 μl of plasmin from Kordia (0.3 μg/ml in assay buffer). After 15 min of incubation, the enzyme reaction is started by addition of 20 μl of the plasmin substrate MeOSuc-Ala-Phe-Lys-AMC dissolved in assay buffer (150 μM in assay buffer) from Bachem, the mixture is incubated at room temperature (22° C.) for 30 min and fluorescence is then measured (excitation: 360 nm, emission: 460 nm). The measured emissions of the test batches with test substance are compared to those of control batches without test substance (only dimethyl sulphoxide instead of test substance in dimethyl sulphoxide), and ICso values are calculated from the concentration/activity relationships.

The target of assay [3] is T2, human factor XIa (Homo sapiens, UniProt P03951).
T2 construct: purchased Kordia
The experiment in a line: Measurement of FXIa inhibition (fluorogenic peptide substrate Boc-Glu(OBzl)-Ala-Arg-AMC). The note with it: factor XIa from Kordia, 15 min preincubation, 30 min at 22° C., fluorescence. The protocol:
To determine the factor XIa inhibition of the substances according to the invention, a biochemical test system is used which utilizes the reaction of a peptidic factor XIa substrate to determine the enzymatic activity of human factor XIa. Here, factor XIa cleaves from the peptic factor XIa substrate the C-terminal aminomethylcoumarin (AMC), the fluorescence of which is measured. The determinations are carried out in microtitre plates.
as §1, with “factor XIa” for “plasmin”, “(0.45 nM” for “(0.3 μg/ml”, “Boc-Glu(OBzl)-Ala-Arg-AMC” for “MeOSuc-Ala-Phe-Lys-AMC”, “(10” for “(150”, “IC50” for “ICso”

Where a name gives a salt, the structure may show the parent alone.

T1 sequence (P00747 581-810 limits assumed): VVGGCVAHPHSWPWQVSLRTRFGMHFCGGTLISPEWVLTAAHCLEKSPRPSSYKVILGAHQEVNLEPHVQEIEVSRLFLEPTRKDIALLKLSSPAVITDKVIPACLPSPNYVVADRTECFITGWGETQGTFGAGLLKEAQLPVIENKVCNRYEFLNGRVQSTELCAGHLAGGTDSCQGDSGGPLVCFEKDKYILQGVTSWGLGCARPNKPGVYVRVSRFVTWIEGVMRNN
T1 sequence (P00747 97-580 partner limits assumed): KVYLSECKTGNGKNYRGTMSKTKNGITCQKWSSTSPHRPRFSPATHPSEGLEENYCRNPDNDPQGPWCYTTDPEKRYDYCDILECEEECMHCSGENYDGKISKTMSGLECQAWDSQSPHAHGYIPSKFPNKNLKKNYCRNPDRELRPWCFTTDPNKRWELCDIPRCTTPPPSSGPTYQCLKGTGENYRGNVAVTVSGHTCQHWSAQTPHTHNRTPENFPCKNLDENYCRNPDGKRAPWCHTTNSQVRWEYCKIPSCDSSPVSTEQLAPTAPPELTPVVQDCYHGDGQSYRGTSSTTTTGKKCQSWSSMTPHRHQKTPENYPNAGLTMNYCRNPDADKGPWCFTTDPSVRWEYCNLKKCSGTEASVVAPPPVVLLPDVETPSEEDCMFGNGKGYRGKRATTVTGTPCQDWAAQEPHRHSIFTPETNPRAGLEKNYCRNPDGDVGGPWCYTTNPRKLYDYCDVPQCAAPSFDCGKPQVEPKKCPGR
T2 sequence (P03951 388-625 limits assumed): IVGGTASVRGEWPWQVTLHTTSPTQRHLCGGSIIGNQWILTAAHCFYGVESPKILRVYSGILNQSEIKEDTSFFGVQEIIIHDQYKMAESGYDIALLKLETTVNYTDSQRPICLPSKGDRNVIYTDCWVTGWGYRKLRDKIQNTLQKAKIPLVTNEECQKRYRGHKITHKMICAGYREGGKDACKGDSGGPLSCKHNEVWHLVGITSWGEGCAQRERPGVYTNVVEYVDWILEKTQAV
T2 sequence (P03951 19-387 partner limits assumed): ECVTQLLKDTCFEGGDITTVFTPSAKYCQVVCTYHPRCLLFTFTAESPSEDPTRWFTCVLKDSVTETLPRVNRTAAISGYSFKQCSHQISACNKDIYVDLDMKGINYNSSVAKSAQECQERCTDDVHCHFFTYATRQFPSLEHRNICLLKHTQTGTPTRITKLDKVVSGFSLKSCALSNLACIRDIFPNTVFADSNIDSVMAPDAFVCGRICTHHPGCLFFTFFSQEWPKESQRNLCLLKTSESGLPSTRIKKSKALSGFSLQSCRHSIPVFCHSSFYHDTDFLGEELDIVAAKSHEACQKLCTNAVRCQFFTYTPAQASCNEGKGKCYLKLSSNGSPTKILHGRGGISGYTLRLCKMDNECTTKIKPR

A word on the IC50: it is the point on the concentration scale where inhibition reaches its midpoint. Read a high IC50 as a need for much substance. Regarding `Cc1cc2oc(C3CC3)nc2cc1-c1ccc(C[C@H](NC(=O)[C@H]2CC[C@H](CN)CC2)C(=O)Nc2ccc(-c3nnn[nH]3)cc2)cc1.Cl` (relative stereo) [Example 26, N-alpha-{[trans-4-(Aminomethyl)cyclohexyl]carbonyl}-4-(2-cyclopropyl-6-methyl-1,3-benzoxazol-5-yl)-N-[4-(1H-tetrazol-5-yl)phenyl]-L-phenylalaninamide hydrochloride], in assay [1], the “aPTT (concentration of test substance which brings about a 1.5-fold extension of the aPTT)” value came to 0.18 µmol/L. Besides, the results for the IC50 in assay [2] and in assay [3] were 2.7 nM and 1.4 nM, respectively.

For the compound `Cc1cc2[nH]c(C(C)C)nc2cc1-c1ccc(C[C@@H](NC(=O)C2CCC(CN)CC2)C(=O)Nc2ccc3[nH]c(=O)[nH]c3c2)cc1` (single isomer, unassigned; enantiomer 1) [Example 38, N-alpha-{[trans-4-(Aminomethyl)cyclohexyl]carbonyl}-4-(2-isopropyl-6-methyl-1H-benzimidazol-5-yl)-N-(2-oxo-2,3-dihydro-1H-benzimidazol-5-yl)-D-phenylalaninamide hydrochloride (Enantiomer 1)], the IC50 in assay [2] turned out to be 20 nM; in assay [3], 37 nM.

Take `Cc1cc2[nH]c(C(C)C)nc2cc1-c1ccc(C[C@H](NC(=O)C2CCC(CN)CC2)C(=O)Nc2ccc3[nH]c(=O)[nH]c3c2)cc1` (single isomer, unassigned; enantiomer 2) [Example 39, N-alpha-{[trans-4-(Aminomethyl)cyclohexyl]carbonyl}-4-(2-isopropyl-6-methyl-1H-benzimidazol-5-yl)-N-(2-oxo-2,3-dihydro-1H-benzimidazol-5-yl)-L-phenylalaninamide hydrochloride (Enantiomer 2)]: the IC50 in assay [2] amounted to 0.64 nM; in assay [3], 1.1 nM.

Turning to `Cc1cc2nc[nH]c2cc1-c1ccc(C[C@H](NC(=O)C2CCC(CN)CC2)C(=O)Nc2ccc(-c3nn[nH]n3)cc2)cc1` (stereo partly drawn) [Example 1, N-alpha-{[trans-4-(Aminomethyl)cyclohexyl]carbonyl}-4-(5-methyl-1H-benzimidazol-6-yl)-N-[4-(2H-tetrazol-5-yl)phenyl]-L-phenylalaninamide hydrochloride], in assay [1], the “aPTT (concentration of test substance which brings about a 1.5-fold extension of the aPTT)” value was found to be 0.07 µmol/L. In addition, the values for the IC50 in assay [2] and in assay [3] were 22 nM and 0.9 nM, respectively.

Consider `Cc1cc2nc[nH]c2cc1-c1ccc(C[C@H](NC(=O)[C@H]2CC[C@H](CN)CC2)C(=O)Nc2ccc3c(=O)[nH][nH]c3c2)cc1` [Example 8, N-alpha-{[trans-4-(Aminomethyl)cyclohexyl]carbonyl}-4-(5-methyl-1H-benzimidazol-6-yl)-N-(3-oxo-2,3-dihydro-1H-indazol-6-yl)-L-phenylalaninamide hydrochloride], for which the IC50 in assay [2] worked out at 21 nM; in assay [3], 6 nM.

`NC[C@H]1CC[C@H](C(=O)N[C@@H](Cc2ccc(-c3ccc4c(c3)NC(=O)CC4)cc2)C(=O)Nc2ccc(-c3nn[nH]n3)cc2)CC1` [Example 9, N-alpha-{[trans-4-(Aminomethyl)cyclohexyl]carbonyl}-4-(2-oxo-1,2,3,4-tetrahydroquinolin-7-yl)-N-[4-(2H-tetrazol-5-yl)phenyl]-L-phenylalaninamide hydrochloride]: the 50% inhibitory concentration (IC50) was found to be 25 nM in assay [2] and 3.7 nM in assay [3].

On to `NC[C@H]1CC[C@H](C(=O)N[C@@H](Cc2ccc(-c3ccc4c(c3)NC(=O)CC4)cc2)C(=O)Nc2ccc(-c3nn[nH]n3)c(F)c2)CC1` [Example 12, N-alpha-{[trans-4-(Aminomethyl)cyclohexyl]carbonyl}-N-[3-fluoro-4-(2H-tetrazol-5-yl)phenyl]-4-(2-oxo-1,2,3,4-tetrahydroquinolin-7-yl)-L-phenylalaninamide hydrochloride], for which the IC50 in assay [2] was found to be 5.9 nM; in assay [3], 2.4 nM.

With `Cc1cc2[nH]c(C(C)C)nc2cc1-c1ccc(C[C@H](NC(=O)[C@H]2CC[C@H](CN)CC2)C(=O)Nc2ccc3[nH]c(=O)[nH]c3c2)cc1` [Example 19, N-alpha-{[trans-4-(Aminomethyl)cyclohexyl]carbonyl}-4-(2-isopropyl-6-methyl-1H-benzimidazol-5-yl)-N-(2-oxo-2,3-dihydro-1H-benzimidazol-5-yl)-L-phenylalaninamide], the IC50 in assay [2] came to 1.3 nM; in assay [3], 3.1 nM.

Turning to `Cc1cc2[nH]c(C3CC3)nc2cc1-c1ccc(C[C@H](NC(=O)[C@H]2CC[C@H](CN)CC2)C(=O)Nc2cc(Cl)c3[nH]c(=O)[nH]c3c2)cc1` [Example 20, N-alpha-{[trans-4-(Aminomethyl)cyclohexyl]carbonyl}-N-(7-chloro-2-oxo-2,3-dihydro-1H-benzimidazol-5-yl)-4-(2-cyclopropyl-6-methyl-1H-benzimidazol-5-yl)-L-phenylalaninamide], the “aPTT (concentration of test substance which brings about a 1.5-fold extension of the aPTT)” value in assay [1] is 0.26 µmol/L. For the same compound, the IC50 is 0.4 nM in assay [2] and 0.9 nM in assay [3].

Regarding `Cc1nc2[nH]c(C3CC3)nc2cc1-c1ccc(C[C@H](NC(=O)[C@H]2CC[C@H](CN)CC2)C(=O)Nc2ccc3[nH]c(=O)[nH]c3c2)cc1` [Example 21, N-alpha-{[trans-4-(Aminomethyl)cyclohexyl]carbonyl}-4-(2-cyclopropyl-5-methyl-1H-imidazo[4,5-b]pyridin-6-yl)-N-(2-oxo-2,3-dihydro-1H-benzimidazol-5-yl)-L-phenylalaninamide], the “aPTT (concentration of test substance which brings about a 1.5-fold extension of the aPTT)” value in assay [1] was found to be 0.3 µmol/L. Moreover, the results for the IC50 in assay [2] and in assay [3] were 0.4 nM and 0.7 nM, respectively.

On to `Cc1cc2[nH]c(C3CC3)nc2cc1-c1ccc(C[C@H](NC(=O)[C@H]2CC[C@H](CN)CC2)C(=O)Nc2cc(F)c3c(=O)[nH][nH]c3c2)cc1` [Example 22, N-alpha-{[trans-4-(Aminomethyl)cyclohexyl]carbonyl}-4-(2-cyclopropyl-6-methyl-1H-benzimidazol-5-yl)-N-(4-fluoro-3-oxo-2,3-dihydro-1H-indazol-6-yl)-L-phenylalaninamide hydrochloride], for which the “aPTT (concentration of test substance which brings about a 1.5-fold extension of the aPTT)” value in assay [1] was 0.18 µmol/L. Besides, the half-maximal inhibitory concentration (IC50) was found to be 0.6 nM in assay [2] and 0.5 nM in assay [3].

In the case of `NC[C@H]1CC[C@H](C(=O)N[C@@H](Cc2ccc(-c3cc4nc(C5CC5)[nH]c4cc3Cl)cc2)C(=O)Nc2ccc3[nH]c(=O)[nH]c3c2)CC1` [Example 23, N-alpha-{[trans-4-(Aminomethyl)cyclohexyl]carbonyl}-4-(6-chloro-2-cyclopropyl-1H-benzimidazol-5-yl)-N-(2-oxo-2,3-dihydro-1H-benzimidazol-5-yl)-L-phenylalaninamide hydrochloride], the “aPTT (concentration of test substance which brings about a 1.5-fold extension of the aPTT)” value in assay [1] is 0.27 µmol/L. For the same compound, the results for the IC50 in assay [2] and in assay [3] were 0.95 nM and 2.3 nM, respectively.

As for `Cc1cc2nc(C(C)C)[nH]c2cc1-c1ccc(C[C@H](NC(=O)[C@H]2CC[C@H](CN)CC2)C(=O)Nc2ccc(-c3nnc(C(F)(F)C(F)(F)C(=O)O)[nH]3)cc2)cc1` [Example 24, 3-[5-(4-{[N-{[trans-4-(Aminomethyl)cyclohexyl]carbonyl}-4-(2-isopropyl-6-methyl-1H-benzimidazol-5-yl)-L-phenylalanyl]amino}phenyl)-4H-1,2,4-triazol-3-yl]-2,2,3,3-tetrafluoropropanoic acid hydrochloride], the IC50 is 1.4 nM in assay [2] and 0.5 nM in assay [3].

(Values after patent US20160280688A1, “SUBSTITUTED PHENYLALANINE DERIVATIVES” (BAYER PHARMA AKTIENGESELLSCHAFT, priority 2013, published 2016).)
